This is an account of results in patent publication US11541101B1, “LEMD3 antagonizes TGF-beta-driven Smad2/3 transcription in a stiffness-dependent fashion in both the nucleus and cytosol” (University of Virginia Patent Foundation, priority 2018, dated 2023).

Peptide text beside a SMILES is read from it. * marks the point of attachment. Cbz = O=C(OCc1ccccc1)*

The subject of one assay is LEMD3. In words: Recombinant LEMD3 fragment western blots (FLAG and V5 tags). Type of assay: cell-based, human. Conditions: pFLAG-LEMD3-V5 transfected cells, inhibitor treatment, FIG. 4E. The source says:
Western Blotting—For non-phosphoprotein western blots: cell lysates from tissue culture plastic or from 2 or 25 kPa, […] Petrisoft dishes (Matrigen, Brea, Calif.) were either: harvested directly in 4× protein loading buffer (Licor, Lincoln, Nebr.) supplemented with protease and phosphatase in-hibitors (#A32959, ThermoFisher, Waltham, Mass.) according to the manufacturer's instructions; or, processed with the NE-PER compartment isolation kit (ThermoFisher, Waltham, Mass.) according to the manufacturer's instructions. Lysates were treated with 0.3 μL of benzonuclease (ThermoFisher, Waltham, Mass.) for 15 minutes at room temperature with vigorous shaking. Samples were heated to 95 C for 5 minutes and run on a 4-12% Bis-Tris gel in 1×MES buffer and run for 70 minutes at 150V. The gel was then transferred to a nitro-cellulose membrane using the XCell Blot Module (ThermoFisher, Waltham, Mass.) at 25V for 65 min-utes. Membranes were air-dried for an hour, blocked with 5% non-fat milk in 1×PBS for an hour at room temperature, and then incubated with primary antibodies as described in Table 3 in 1×PBS-T with 1% milk for 16-24 hours at 4 C. Near-IR or HRP conjugated secondaries as described in Table 4 were then incubated with the blot and imaged subsequently on either an Odyssey CLx system for near-IR dyes (Licor, Lincoln, Nebr.) or a ChemiDoc MP system (Bio-Rad, Hercules, Calif.) with SuperSignal West Femto reagents (ThermoFisher, Waltham, Mass.) for HRP secondaries according to the manufacturer's instructions. Band analysis was performed using the associated Licor or Biorad software.
For recombinant LEMD3 western blots: Two samples of HFFs were prepared and electro-porated as above and plated onto each plastic or hydrogel surface for 12 hours (protease inhibitor experiments) or 24 hours (LEMD3 fragment abundance and deletion mutant experiments) before harvesting. qPCR—RNA was isolated from cultured cells using RNEasy Plus Mini kits (Qiagen, Hilden, Germany) according to the manufacturer's instructions. cDNA libraries were constructed using RT2 First Strand kit (Qiagen, Hilden, Germany) according to the manufacturer's instruction. 25 μL qPCR reactions were prepared using SYBR Green Master Mix (ThermoFisher, Waltham, Mass.) with 250 nM primers, listed in Table 3 and 10 ng input cDNA. Reactions were carried out on a StepOnePlus (ThermoFisher, Waltham, Mass.) for 40 cycles. Melt curves were visually inspected after each run to confirm a single, defined peak in the derivated intensity plot. Data from each run was imported into LinRegPCR, which performed baseline correction and measured PCR efficiency by amplicon group as described in (81). The relative number of transcripts was calculated by dividing the Cq threshold by the PCR efficiency for the reaction raised to the power of Cq, the cycle number at which the threshold is reached for a given target. For relative quantification be-tween conditions, LEMD3 transcripts were either: normalized for each condition to the mean of two reference genes, 18S and ACTB, if the samples were all from a single stiffness condition; or, normalized to 18S alone if substrate stiffness was an experimental condition.

For assay [1] the following is noted: pulmonary fibrosis; cited from earlier work.
For the next assay, the system named is Smad-driven luciferase. In words: Smad-driven luciferase assay on substrates of varying stiffness. Type of assay: cell-based, human. How it is done: Smad-Driven Luciferase Assays—HFFs were transfected with Cignal Lenti Reporter virus (Qiagen, Hilden, Germany) with a MOI of 40 and subsequently selected using 400 ng/mL puromycin until untransduced HFFs died. Stably transfected HFFs, with or without additional LEMD3-focused genetic treatments as described above, were plated at 10,000 cells/well on a HTS plate (Matrigen, Brea, Calif.) containing glass surfaces and polyacrylamide gels, which ranged in stiffness from 0.2 kPa to 50 kPa, all functionalized with 10 μg/mL plasma-purified human fibronectin according to the manufacturer's instruction. Cells adhered to the surfaces for 4 hours in serum-free DMEM supplemented with 1% BSA and 1% penicillin/streptomycin. Media was then supplemented with the desired amounts of TGFβ and, when applicable, with cytoskeletal agents as described in the results. HFFs were then incubated for 16 hours at 37 C before the luciferase re-action. Wells were supplemented to 2 mM VivoGlo d-luciferin (Promega, Madison, Wis.) using a plate reader controlled auto-injector system and light production was subsequently quantified every 5 minutes for 30 minutes on a Synergy H4 plate reader (BioTek, Winooski, Vt.). The raw luciferase signal was the median intensity measured over this timecourse minus the intensity from luciferase-transfected cells not treated with TGFβ to account for any TGFβ elaborated and activated by the cells in situ. Cells were then fixed with 4% paraformaldehyde, permeabilized with 0.1% Triton X-100, and then stained with 1:10,000 Hoechst 33342 in 1×PBS for 30 minutes at room temperature (ThermoFisher, Waltham, Mass.). The raw luciferase signal was then normalized to the nuclear signal, which was inside a linear standard curve form cells plated on glass and on polyacrylamide within each plate. Data for each condition was then fit to a three-parameter logistic equation using a least-squares minimization fit in Prism (Graph-Pad, La Jolla, Calif.). […] Otherwise, the trends across the maximal luciferase signal (“Top” variable from the model) or the mid-transition point observed between “Bottom” and “Top” signals (“EC50” variable from the model, called “transition point” in text), were statistically compared using an ANOVA with “Test for Trends,” which restricts the hypothesis testing to a particular order of the data-sets (e.g. max luciferase signal as a function of increasing TGFβ dose or transition point as a function of increased LEMD3 expression). Each data point represents at least three biological replicates.

In a further assay the test system is LEMD3-Smad2/3 complexes. Kind of assay: LEMD3-Smad2/3 proximity ligation assay (PLA). Type of assay: cell-based, human. How it is done: In vitro PLA: Protein-protein PLA was per-formed with antibody pairs listed in Table 4 as described in (42) with the following modifications: cells were plated on FN-coated glass or hydrogels (Matrigen, Brea, Calif.). All primary antibody in-cubations were performed for 16-24 hours at 4 C and cells were counter-stained with 1:40 phalloidin-488 or phalloidin-546 in 1×PBS for 30 minutes at room temperature and/or further processed for IF imaging using the procedure recommended in Sigma's PLA Resource Center. For all recombinant LEMD3 and C-terminal fragment experiments, HFFs were electroporated as above and allowed to culture for 24 hours on 10 μg/mL fibronectin coated glass or hydrogels before fixation. For LEMD3-phospho-Smad2/3, LEMD3-Smad2/3+TGFβ and for Smad2/3-Smad4 PLA assays: cells were treated 90 minutes before fixation with 50 μg/mL for LEMD3- and CTF-Smad2/3 assays, 100 μg/mL TGFβ for LEMD3-phospho-Smad2/3 experiments and 500 μg/mL TGFβ for Smad2/3-Smad4 experiments. For FLAG post-staining of PLA processed tissues, cells were blocked with unlabelled AffiniPure donkey anti-rabbit antibodies (Jackson ImmunoResearch, West Grove, Pa.) at a 1:10 dilution in 1×PBS-T at room temperature for 1 hour before further IF processing with 1:1000 rabbit anti-FLAG (#F7425, Sigma-Aldrich, Darmstadt, Germany) for 1 hour in PBS-T at room temperature. Following three washes with PBS-T for 5 minutes, each sample was stained with 1:500 goat anti-rabbit 546 in PBS-T for 1 hour at room temperature, washed again and then counter-stained as above. For V5 post-staining of PLA processed samples, cells were incubated with 1:200 647 labelled anti-V5 antibody (R&D Systems, Minneapolis, Minn.) diluted in PBS-T at room tem-perature for 1 hour before washing three times in PBS-T for 5 minutes each and then counter-stained as above. Imaging and analysis were performed as described for high-resolution ex vivo PLA signals except that no tissue autofluorescence signal was measured or needed to be subtracted and, when appro-priate, other IF signal (e.g. FLAG) were measured in parallel. For cells on Matrigen HTS plates (FIGS. 2c & 2d), the confluence of cells prevented identifying individual cell boundaries. Instead the PLA signal was quantified as the PLA volume divided by the nuclear intensity for each image. Each data point represents at least 3 unique surfaces with at least 12 cells measured per surface. For Smad2/3-Smad4 experiments, only two independent hydrogels were analyzed for the “CTF 500 μg/mL” and “Neon 500 μg/mL” groups due to loss of hydrogels during processing. Each bar in FIG. 5D represents the mean with standard error of the mean for all the cells analyzed from that condition.

In the next assay the test system is Smad3 phosphorylation. Kind of assay: phospho-Smad3 to total Smad3 ratio by western blot. Type of assay: cell-based, human. The conditions noted are these: 100 μg/mL for 90 minutes, relative to untreated HFFs, p=0.0506.
The subject of assay [2] is LEMD3-phospho-Smad2/3 interactions. In words: LEMD3-phospho-Smad2/3 PLA. The conditions noted are these: 100 μg/mL, HFFs on glass, vs untreated fibroblasts, p=0.0333. Type of assay: cell-based, human. As to the method:
(§1) In vitro PLA: Protein-protein PLA was per-formed with antibody pairs listed in Table 4 as described in (42) with the following modifications: cells were plated on FN-coated glass or hydrogels (Matrigen, Brea, Calif.). All primary antibody in-cubations were performed for 16-24 hours at 4 C and cells were counter-stained with 1:40 phalloidin-488 or phalloidin-546 in 1×PBS for 30 minutes at room temperature and/or further processed for IF imaging using the procedure recommended in Sigma's PLA Resource Center. […] Imaging and analysis were performed as described for high-resolution ex vivo PLA signals except that no tissue autofluorescence signal was measured or needed to be subtracted and, when appro-priate, other IF signal (e.g. FLAG) were measured in parallel. […] Instead the PLA signal was quantified as the PLA volume divided by the nuclear intensity for each image. Each data point represents at least 3 unique surfaces with at least 12 cells measured per surface. For Smad2/3-Smad4 experiments, only two independent hydrogels were analyzed for the “CTF 500 μg/mL” and “Neon 500 μg/mL” groups due to loss of hydrogels during processing. Each bar in FIG. 5D represents the mean with standard error of the mean for all the cells analyzed from that condition.

Another assay concerns Smad2/3. In words: V5-Smad2/3 PLA with recombinant LEMD3 / CTF. Type of assay: cell-based, human. The conditions noted are these: 50 μg/mL, 1 kPa or 25 kPa substrates, p=0.98 and p=0.99. As to the method: as §1
The next assay relates to Smad2/3-Smad4 complexes. In words: Smad2/3-Smad4 PLA. Type of assay: cell-based, human. Conditions: 500 μg/mL, HFFs on 1 kPa hydrogels, relative to untreated HFFs, p=0.001. How it is done:
as §1

Where [3] appears, read: 10 μM, relative to HFFs treated with TGFβ alone, FIG. 1D.

`O=c1oc(Cl)c(Cl)c2ccccc12` [DCI, 3,4 dichloroisocoumarin]: in the assay with LEMD3, the “60 kDa FLAG fragment relative to full length” value is reported as “reduced”.

Regarding `CCOC(=O)[C@H]1O[C@@H]1C(=O)N[C@@H](CC(C)C)C(=O)NCCC(C)C` [E64d, E-64D], in the assay on LEMD3, the “85 kDa V5 fragment abundance” value is reported as “potentiated”.

In the case of `CC(C)C[C@@H](C=O)NC(=O)[C@H](CC(C)C)NC(=O)[C@H](CC(C)C)NC(=O)OCc1ccccc1` [MG-132] (Cbz-Leu-Leu-Leu-aldehyde), the “60 kDa FLAG fragment relative to full length” value with LEMD3 was “also reduced”.

`CNC(=O)C(CCc1ccccc1)NC(=O)C(CC(=O)NO)CC(C)C` (stereo not drawn) [MMPi]: the “85 kDa V5 fragment abundance” value with LEMD3 was “potentiated”.

Turning to `Cc1ccc(=O)n(-c2ccccc2)c1` [Pirfenidone], the disease progression result in assay [1] is given as “slowing of disease progression”.

As for `Cc1ccc2c(c1)C(=O)C1(O)CCN(c3ccccc3)C1=N2` (stereo not drawn) [blebbistatin, Blebbistatin], in the assay with Smad-driven luciferase (setting [3]), the maximal luminescence result is on record as “nor increase the maximal luminescence” and the transition point result is reported as “did not significantly shift”.

As for `C=C1[C@@H](C)[C@H]2[C@H](Cc3ccccc3)NC(=O)[C@]23[C@H](OC(C)=O)/C=C/[C@@](C)(O)C(=O)[C@@H](C)C/C=C/[C@H]3[C@@H]1O` [cytochalasin D, Cytochalasin D], in the assay with Smad-driven luciferase (2 μM, FIG. 1D, data did not converge to a sigmoidal model), the “luminescent profile over increasing ECM stiffness” value is listed as “low, flat luminescent profile”. Besides, the “total frequency of LEMD3-Smad2/3 complexes” value with LEMD3-Smad2/3 complexes (2 μM for 90 minutes, fibroblasts on glass, p=0.0089) was “increase”. In the assay with LEMD3-Smad2/3 complexes (2 μM for 90 minutes, glass, p=0.0871), the “frequency of LEMD3-Smad2/3 complexes, cytosolic compartment” value is “also increased”. The “frequency of LEMD3-Smad2/3 complexes, nuclear compartment” value with LEMD3-Smad2/3 complexes (2 μM for 90 minutes, glass, p=0.5657) is “also increased”.

With `C/C1=C\[C@H](C)C[C@H](C)OC(=O)C[C@H](c2ccc(O)cc2)NC(=O)[C@@H](Cc2c(Br)[nH]c3ccccc23)N(C)C(=O)[C@H](C)NC(=O)[C@@H](C)C1` [jasplakinolide, Jasplakinolide], the “LEMD3-Smad2/3 interactions, total” value in the assay on LEMD3-Smad2/3 complexes (100 nM and 200 nM for 2 hours, 1 kPa hydrogels, vs DMSO p<0.0001) was “dose-dependent decrease”. For the same molecule, the “LEMD3-Smad2/3 complex formation, cytoplasm” value in the assay on LEMD3-Smad2/3 complexes (100 nM and 200 nM, 1 kPa hydrogels, vs DMSO p<0.0001) was “Significant reductions”. Further, the “LEMD3-Smad2/3 complex formation, nucleus” value with LEMD3-Smad2/3 complexes (100 nM p=0.0466, 200 nM p=0.002 vs DMSO, 1 kPa hydrogels) is recorded as “Significant reductions”.

As for `CC[C@H](CO)Nc1nc(NCc2ccccc2)c2ncn(C(C)C)c2n1` [roscovitine], in the assay with LEMD3, the “46 kDa V5 fragment abundance” value is listed as “significantly increasing” and the “60 kDa FLAG fragment relative to full length” value is on record as “significantly reducing”.

Take “TGFβ: Recombinant human TGF-β, R&D Systems 240-B”: the “TGFβ dose-response of luminescence” value in the assay on Smad-driven luciferase (HFFs on stiff substrates, p<0.0001, FIG. 1B) is “increasing luminescence with increasing TGFβ dose”. In the assay on Smad-driven luciferase (HFFs, p=0.07, FIG. 1B), the “shift of the sigmoid transition point with increasing pg/mL doses” value was “shift the transition point of the sigmoid towards softer substrates”. Moreover, in the assay with Smad-driven luciferase (pg/mL dose-range of TGFβ), the “stiffness at which transition points occurred” value is given as 1-4 kPa. Further, the “ratio of phospho-Smad3 to total Smad3” value in the assay on Smad3 phosphorylation is reported as “increased the ratio of phospho-Smad3 to total Smad3”. The “LEMD3-Smad2/3 interactions with TGFβ dosing” value in the assay with LEMD3-Smad2/3 complexes (50 μg/mL, 1 kPa and 25 kPa hydrogels) was “unperturbed by TGFβ dosing”. Also, the LEMD3-phospho-Smad2/3 interactions entry in assay [2] is reported as “significantly higher”. The “CTF-Smad2/3 interaction frequency with TGFβ dosing” value in the assay with Smad2/3 was “did not significantly vary”. The Smad2/3-Smad4 complexes entry with Smad2/3-Smad4 complexes is “increase”.
